Ends that are not written are not given here.
System: cAMP production
Assay: activity of inhibiting the cAMP production (method of Example 1 of WO 00/29441)
Type: cell-based
Details: polypeptide obtained in Example 4, compared with the synthetic polypeptide of the same sequence
Description: The activity of inhibiting the cAMP production was determined for the polypeptide of the invention obtained in Example 4 (the polypeptide having the amino acid sequence of SEQ ID NO: 7) according to the method described in Example 1 of WO 00/29441.

polypeptide having the amino acid sequence of SEQ ID NO: 7: polypeptide of the invention consisting of 37 amino acid residues, excised from a recombinant RFRP-1/CS23 fusion protein by S-cyanation and ammonolysis (SLNFEELKDWGPKNVIKMSTPAVNKMPHSFANLPLRF; not fully specified (C-terminus))
activity of inhibiting the cAMP production: has the activity as much as the synthetic polypeptide

— US20040029215A1, “Process for producing rfrp” (priority 2000, published 2004)
